The target in test [1] is T1, Human fibrinogen receptor (αIIbβ3) (Homo sapiens, UniProt P05106+P08514).
T1 construct: Human fibrinogen receptor (αIIbβ3) was purified from outdated platelets; from tissue; host or cells: outdated (human) platelets
Nature of the test: Purified IIb/IIIa receptor assay (solid phase receptor assay, competition with biotinylated vitronectin). It counts as binding. To be noted: purified receptor from outdated platelets; 1 nM biotinylated vitronectin; highest concentration tested 1.0 x 10^-4 M. In a few lines: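 Platelet-derived αIIbβ3 coated at 1.0 µg/mL overnight at 4 °C in TBS with 1 mM Ca, Mg, Mn, pH 7.4, BSA-blocked; compounds competed with 1 nM biotinylated vitronectin (final; top compound 1.0 × 10^-4 M) for 2 h at room temperature. Bound ligand detected via HRP anti-biotin, A450; normalized to maximum binding, four-parameter fit.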

The target in test [2] is T2, Human vitronectin receptor (αvβ3) (Homo sapiens, UniProt P05106+P06756).
T2 construct: Human vitronectin receptor (αvβ3) was purified from human placenta; from tissue; host or cells: human placenta
The experiment in a line: Vitronectin adhesion assay (solid phase receptor assay, competition with biotinylated vitronectin). The test is classed as binding.

[3] abbreviates: purified receptor from human placenta, 1 nM biotinylated vitronectin, highest concentration tested 1.0 x 10^-4 M, read-out: AvB3 IC50.
[4] abbreviates: read-out: AvB3 IC50, purified receptor from human placenta, 1 nM biotinylated vitronectin, highest concentration tested 1.0 x 10^-4 M.

Where a name gives a salt, the structure may show the parent alone. Read-outs that look alike come from different tables or passages of the source.

As a reminder, the IC50 is the midpoint of a concentration-inhibition curve. Consider `CC(C)CC(=O)NC(Cc1ccc(NC(=O)c2cccc(NC(=N)N)c2)cc1)C(=O)O` (stereo not drawn) [Example 106, 4-[[[3-[(aminoiminomethyl]amino]phenyl]-carbonyl]amino]-N-[(3-methyl-1-oxobutyl)-phenylalanine, bis(trifluoroacetate) salt], for which the results for the IC50 in test [1] and in test [2] were 0.077 µM and 0.005 µM, respectively.
For the compound `N=C(N)Nc1cccc(C(=O)NCCc2ccc(CCC(=O)O)cc2)c1` [Example 59, 4-[2-[[[3-[(aminoiminomethyl)amino]phenyl]carbonyl]amino]ethyl]benzenepropanoic acid, trifluoroacetate salt], the concentration for half-maximal inhibition (IC50) was 0.478 µM in test [1] and 4.48 µM in test [2] (setting [3]).
Regarding `COc1cc(NC(=O)c2cccc(NC3=NCCCN3)c2)ccc1CCC(=O)O` [Example 116, 2-methoxy-4-[[[3-[(1,4,5,6-tetrahydropyrimidin-2-yl)amino]phenyl]carbonyl]amino]benzenepropanoic acid, trifluoroacetate salt], the IC50 in test [1] amounted to 3.18 µM; in test [2] (setting [3]), 0.006 µM.
In the same order, the values of `CC(C)OC(=O)NC(Cc1ccc(NC(=O)c2cccc(NC(N)=NC(N)=O)c2)cc1)C(=O)O` (stereo not drawn) [Example 105, 4-[[[3-[[amino[(aminocarbonyl)imino]methyl]-amino]phenyl]carbonyl]amino]-N-[(1-methylethoxy]carbonyl]phenylalanine, bis(trifluoroacetate) salt] are 0.267 µM and 0.002 µM.
Regarding `N=C(N)Nc1cccc(C(=O)Nc2ccc(CC(C(=O)O)C(=O)O)cc2)c1` [Example 120, [[4-[[[3-[(aminoiminomethyl)amino]phenyl]carbonyl]-amino]phenyl]methyl]-1,3-propanoic acid, trifluoroacetic salt], the IC50 came to 0.384 µM in test [1] and 0.014 µM in test [2] (setting [3]).
Regarding `N#CN=C(NCc1ccccc1)Nc1cccc(C(=O)Nc2ccc(CCC(=O)O)cc2)c1` [Example 79, 4-[[[3-[[(cyanoimino)[(phenylmethyl)-amino]methyl]amino]phenyl]carbonyl]amino]-benzenepropanoic acid], the values for the IC50 in test [1] and in test [2] (setting [3]) were 10.2 µM and 2.29 µM, respectively.
Turning to `CCCCS(=O)(=O)NC(Cc1ccc(NC(=O)c2cccc(NC(=N)N)c2)cc1)C(=O)OCC` (stereo not drawn) [Example 41, trifluoroacetate salt], the values for the IC50 in test [1] and in test [2] (setting [4]) were 5.7 µM and 1.08 µM, respectively.
Take `CN(C)c1cc(NC(=O)c2cccc(NC(=N)N)c2)ccc1CCC(=O)O` [Example 117, 4-[[[3-[(aminoiminomethyl)amino]phenyl]carbonyl]-amino]-2-(dimethylamino)benzenepropanoic acid, bis(trifluoroacetate) salt]: the IC50 in test [1] is 0.452 µM; in test [2] (setting [3]) it was 0.129 µM.
With `O=C(O)CCc1ccc(NC(=O)c2cccc(NC(=O)NCc3ccccc3)c2)cc1` [Example 28, 4-[[[3-[[[(phenylmethyl)amino]carbonyl]amino]phenyl]carbonyl]amino]benzenepropanoic acid], the values for the IC50 in test [1] and in test [2] (setting [3]) were 10.1 µM and 0.555 µM, respectively.
`CC(C)OC(=O)NC(Cc1ccc(NC(=O)c2cccc(NC(=N)N)c2)c(Cl)c1)C(=O)O` (stereo not drawn) [Example 127, trifluoroacetate salt]: the IC50 in test [1] came out at 0.022 µM; in test [2] (setting [4]), 0.0006 µM.
`CCOC(=O)COc1ccc(NC(=O)c2cccc(NC(=N)N)c2)cc1` [Example 89, ethyl [4-[[[3-[(aminoiminomethyl)amino]phenyl]carbonyl]amino]phenoxy]acetate, trifluoroacetate salt]: the values for the IC50 in test [1] and in test [2] (setting [3]) were 16 µM and 2.07 µM, respectively.
The matching figures for `CCOC(=O)C(CC(=O)O)c1ccc(NC(=O)c2cccc(NC(=N)N)c2)cc1` (stereo not drawn) [Example 71, 1-ethyl hydrogen[4-[[[3-[(aminoiminomethyl)amino]phenyl]carbonyl]amino]-phenyl]butanedioate, trifluoroacetate salt]: 0.0083 µM and 0.0387 µM.

For the origin of these results see EP1157985A1 (G.D. SEARLE & CO., priority 1996, dated 1997).
